Source: patent publication US12673041B2, “4-aminobut-2-enamide derivatives and salt thereof” (TAIHO PHARMACEUTICAL CO., LTD., priority 2019, dated 2026)
pIC50: −log10 of the molar value.

Legend:
[1] = molecular target: Gppcp-bound recombinant K-Ras4B G12C mutant protein (amino acids 1-169, C51S/C80L/C118S) (Homo sapiens, UniProt P01116, C118S/C51S/C80L/G12C); experiment: KRASG12C binding assay (LC-MS compound binding rate); settings: test compound final concentration 0.5 μM, 25° C., 1 hour
Procedure, shortened: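 Gppcp-bound K-Ras4B G12C (aa 1-169, C51S/C80L/C118S) at 50 nM in 1×TBS, 0.1 mM TCEP, 0.25 mM MgCl2, 50 μM Gppcp was incubated 1 hour at 25° C with compound at 0.5 μM final. Intact-protein LC-MS gave binding rate as single-adduct signal over total KRAS signal, graded A (≥80%) to E (<20%).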

[2] = molecular target: T1, GMPPNP-bound KRAS G12C protein and cRAF RAS-binding domain (cRAF-RBD) (Homo sapiens, UniProt P01116, G12C); experiment: Inhibitory activity on interaction between KRAS G12C and cRAF (Alpha technology); type: biochemical; settings: GMPPNP-bound KRAS G12C incubated with compound at 25° C. for 1 hour, then cRAF-RBD, Alpha signal; read-out: IC50
T1 construct: made in house; host or cells: E. coli
Procedure, shortened: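 GMPPNP-loaded His-KRAS G12C (aa 1-169) preincubated 1 h at 25 °C with compound (pH 7.5 Tris, 1 mM MgCl2, TCEP, Tween 20), then cRAF-RBD (aa 50-132) and Alpha reagents added for 1.5 h at RT. Inhibition scaled between DMSO (0%) and GDP-bound KRAS (100%); IC50 by curve fitting.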

MIA PaCa-2 cells = experiment: Growth inhibition activity on KRAS-G12C mutant cell line (MIA PaCa-2); type: cell-based; settings: Homo sapiens, 72 h; MIA PaCa-2, 3-day culture, CellTiter-Glo 3D
Experimental: MIA PaCa-2 cells (given by Sumitomo Dainippon Pharma Co., Ltd.), which are a KRAS-G12C mutant human pancreas cancer cell line, were suspended in a 10% fetal bovine serum-containing RPMI1640 medium (manufactured by Fujifilm Wako Pure Chemical Corporation.). The cell suspension was seeded into each well of a 384-well U bottom microplate and cultured in an incubator containing 5% CO2 gas at 37° C. for 1 day. The compounds obtained in the “Preparation of Compounds” section were used as test compounds and were dissolved in DMSO, respectively, and each test compound was diluted with DMSO to give a concentration 500 times the final concentration. The resultant solution of the test compound in DMSO was diluted with the medium used for suspending cells and added to each well of the cell-culture plate to give a DMSO final concentration of 0.2%, followed by culture in an incubator containing 5% CO2 gas at 37° C. for another 3 days. The cell count after 3-day culture in the presence of the test compound was measured using CellTiter-Glo 3D Reagent (manufactured by Promega Corporation). All wells were added with CellTiter-Glo 3D Reagent and mixed for 10 minutes. 30 minutes after mixing, luminescence was measured by a plate reader. The growth inhibition rate was calculated from the following equation, and the concentration of the test compound at which 50% inhibition was achieved (IC50 (nM)) was determined. […] Growth Inhibition Rate (%)=(C−T)/(C)×100 • T: the emission intensity in a well into which a test compound was added. • C: the emission intensity in a well into which a test compound was not added.

Row | SMILES | binding rate [1] | pIC50 [2] | pIC50 (MIA PaCa-2 cells)
1 | CO[C@H]1CC[C@H](NC/C=C/C(=O)Nc2ccc(C(=O)c3ccc4c(-c5c(Cl)cc6c(ncn6C)c5Cl)cccn34)cc2C#N)CC1 (single isomer, unassigned) [Example 62, (E)-N-(2-cyano-4-(8-(4,6-dichloro-1-methyl-1H-benzo[d]imidazol-5-yl)indolizine-3-carbonyl)phenyl)-4-(((1r,4r)-4-methoxycyclohexyl)amino)but-2-enamide] | A (A binding rate of 80% or more is rated “A”) | 7.24 | 7.37
2 | CO[C@H]1CC[C@H](NC/C=C/C(=O)Nc2ccc(C(=O)Nc3cccc(-c4cc5nc6n(c5cc4C)CCC6)n3)cc2C#N)CC1 [Example 3, 3-cyano-4-((E)-4-(((1r,4r)-4-methoxycyclohexyl)amino)but-2-enamido)-N-(6-(7-methyl-2,3-dihydro-1H-benzo[d]pyrrolo[1,2-a]imidazol-6-yl)pyridin-2-yl)benzamide] | B (a binding rate of 60% or more and less than 80% is rated “B”) | 7.30 | 7.08
3 | Cc1cc2c(cc1-c1cccn3c(C(=O)c4ccc(NC(=O)/C=C/CNC(C)(C)C)c(C#N)c4)ccc13)ncn2C [Example 5, (E)-4-(tert-butylamino)-N-(2-cyano-4-(8-(1,6-dimethyl-1H-benzo[d]imidazol-5-yl)indolizine-3-carbonyl)phenyl)but-2-enamide] | A (A binding rate of 80% or more is rated “A”) | 7.54 | 7.10
4 | CO[C@H]1CC[C@H](NC/C=C/C(=O)Nc2ccc(C(=O)c3ccc4c(-c5cc6ncn(C)c6cc5C(F)(F)F)cccn34)cc2C#N)CC1 [Example 6, (E)-N-(2-cyano-4-(8-(1-methyl-6-(trifluoromethyl)-1H-benzo[d]imidazol-5-yl)indolizine-3-carbonyl)phenyl)-4-(((1r,4r)-4-methoxycyclohexyl)amino)but-2-enamide] | A (A binding rate of 80% or more is rated “A”) | 7.82 | 7.37
5 | CO[C@H]1CC[C@H](NC/C=C/C(=O)Nc2ccc(C(=O)c3ccc4c(-c5cc6nc(C)n(C)c6cc5C(F)(F)F)cccn34)cc2C#N)CC1 [Example 7, (E)-N-(2-cyano-4-(8-(1,2-dimethyl-6-(trifluoromethyl)-1H-benzo[d]imidazol-5-yl)indolizine-3-carbonyl)phenyl)-4-(((1r,4r)-4-methoxycyclohexyl)amino)but-2-enamide] | A (A binding rate of 80% or more is rated “A”) | 7.46 | 7.31
6 | CO[C@H]1CC[C@H](NC/C=C/C(=O)Nc2ccc(C(=O)c3c[nH]c4c(-c5cc6ncn(C)c6cc5C(F)(F)F)cccc34)cc2C#N)CC1 [Example 8, (E)-N-(2-cyano-4-(7-(1-methyl-6-(trifluoromethyl)-1H-benzo[d]imidazol-5-yl)-1H-indole-3-carbonyl)phenyl)-4-(((1r,4r)-4-methoxycyclohexyl)amino)but-2-enamide] | A (A binding rate of 80% or more is rated “A”) | 7.72 | 7.28
7 | CO[C@H]1CC[C@H](NC/C=C/C(=O)Nc2ccc(C(=O)c3cnc4c(-c5cc6ncn(C)c6cc5C)cccn34)cc2C#N)CC1 [Example 9, (E)-N-(2-cyano-4-(8-(1,6-dimethyl-1H-benzo[d]imidazol-5-yl)imidazo[1,2-a]pyridine-3-carbonyl)phenyl)-4-(((1r,4r)-4-methoxycyclohexyl)amino)but-2-enamide] | B (a binding rate of 60% or more and less than 80% is rated “B”) | 7.18 | 7.00
8 | CCc1nc2cc(-c3cccc4c3CCN4C(=O)c3ccc(NC(=O)/C=C/CN[C@H]4CC[C@H](N5CCCC5)CC4)c(C#N)c3)c(C(F)(F)F)cc2n1C [Example 29, (E)-N-(2-cyano-4-(4-(2-ethyl-1-methyl-6-(trifluoromethyl)-1H-benzo[d]imidazol-5-yl)indoline-1-carbonyl)phenyl)-4-(((1r,4r)-4-(pyrrolidin-1-yl)cyclohexyl)amino)but-2-enamide] | A (A binding rate of 80% or more is rated “A”) | 7.02 | 6.39
9 | CCc1nc2cc(-c3cccc4c3CCN4C(=O)c3ccc(NC(=O)/C=C/CNC4CCN(C(C)C)CC4)c(C#N)c3)c(C(F)(F)F)cc2n1C [Example 30, (E)-N-(2-cyano-4-(4-(2-ethyl-1-methyl-6-(trifluoromethyl)-1H-benzo[d]imidazol-5-yl)indoline-1-carbonyl)phenyl)-4-((1-isopropylpiperidin-4-yl)amino)but-2-enamide] | A (A binding rate of 80% or more is rated “A”) | 7.12 | 6.43
10 | CO[C@H]1CC[C@H](NC/C=C/C(=O)Nc2ccc(C(=O)c3ccc4c(-c5cc6nc7n(c6cc5C(F)(F)F)CCC7)cccn34)cc2C#N)CC1 [Example 31, (E)-N-(2-cyano-4-(8-(7-(trifluoromethyl)-2,3-dihydro-1H-benzo[d]pyrrolo[1,2-a]imidazol-6-yl)indolizine-3-carbonyl)phenyl)-4-(((1r,4r)-4-methoxycyclohexyl)amino)but-2-enamide] | A (A binding rate of 80% or more is rated “A”) | 7.59 | 7.07
11 | CCc1cc2c(cc1-c1cccc(NC(=O)c3ccc(NC(=O)/C=C/CN[C@H]4CC[C@H](OC)CC4)c(C#N)c3)c1)nc1n2CCC1 [Example 32, 3-cyano-N-(3-(7-ethyl-2,3-dihydro-1H-benzo[d]pyrrolo[1,2-a]imidazol-6-yl)phenyl)-4-((E)-4-(((1r,4r)-4-methoxycyclohexyl)amino)but-2-enamido)benzamide] | B (a binding rate of 60% or more and less than 80% is rated “B”) | 7.57 | 6.51
12 | CO[C@H]1CC[C@H](NC/C=C/C(=O)Nc2ccc(C(=O)c3ccc4c(-c5cc6cn(C)nc6cc5C)cccn34)cc2C#N)CC1 [Example 76, (E)-N-(2-cyano-4-(8-(2,6-dimethyl-2H-indazol-5-yl)indolizine-3-carbonyl)phenyl)-4-(((1r,4r)-4-methoxycyclohexyl)amino)but-2-enamide] | A (A binding rate of 80% or more is rated “A”) | 6.89 | 
13 | Cn1cnc2cc(-c3cccn4c(C(=O)c5ccc(NC(=O)/C=C/CNC(C)(C)C)c(Cl)c5)ccc34)c(C(F)(F)F)cc21 [Example 77, (E)-4-(tert-butylamino)-N-(2-chloro-4-(8-(1-methyl-6-(trifluoromethyl)-1H-benzo[d]imidazol-5-yl)indolizine-3-carbonyl)phenyl)but-2-enamide] | C (a binding rate of 40% or more and less than 60% is rated “C”) | 6.48 | 
14 | CO[C@H]1CC[C@H](NC/C=C/C(=O)Nc2ccc(C(=O)c3ccc4c(-c5ccc6nn(C)c(Cl)c6c5Cl)cccn34)cc2C#N)CC1 [Example 79, (E)-N-(2-cyano-4-(8-(3,4-dichloro-2-methyl-2H-indazol-5-yl)indolizine-3-carbonyl)phenyl)-4-(((1r,4r)-4-methoxycyclohexyl)amino)but-2-enamide] | A (A binding rate of 80% or more is rated “A”) | 6.36 | 
15 | CO[C@H]1CC[C@H](NC/C=C/C(=O)Nc2ccc(C(=O)c3ccc4c(-c5c(C)cc6c(ncn6C)c5-c5cccnc5)cccn34)cc2C#N)CC1 [Example 82, (E)-N-(2-cyano-4-(8-(1,6-dimethyl-4-(pyridin-3-yl)-1H-benzo[d]imidazol-5-yl)indolizine-3-carbonyl)phenyl)-4-(((1r,4r)-4-methoxycyclohexyl)amino)but-2-enamide] | A (A binding rate of 80% or more is rated “A”) | 6.82 | 
16 | CO[C@H]1CC[C@H](NC/C=C/C(=O)Nc2ccc(C(=O)c3c[nH]c4c(-c5cc6ncn(C)c6cc5C(F)(F)F)cccc34)c(F)c2)CC1 [Example 83, (E)-N-(3-fluoro-4-(7-(1-methyl-6-(trifluoromethyl)-1H-benzo[d]imidazol-5-yl)-1H-indole-3-carbonyl)phenyl)-4-(((1r, 4r)-4-methoxycyclohexyl)amino)but-2-enamide] | A (A binding rate of 80% or more is rated “A”) | 6.36 | 
